Measured values: patent US20260284011A1, “COMPOUNDS FOR RESTORING SUSCEPTIBILITY TO BETA-LACTAM ANTIBIOTICS” (UNIVERSITY OF NOTRE DAME DU LAC, priority 2023, published 2026)

Assays:
BlaR = BlaR (Staphylococcus aureus, UniProt P18357); experiment: Live-cell fluorescent assay for BlaR inhibition (Venus reporter); assay type: cell-based, S. aureus NRS144pCN52RI-Venus; conditions: compound at 100 mg/L^−1; CBAP 10 mg·L^−1; fluorescence after 2 h
Excerpt: Live-Cell Fluorescent Assay in Discovery and Mechanism of Action. We conceived of fluorescent constructs in the bla operon, for the purpose of screening (FIG. 2a). We removed the gene for the β-lactamase (blaZ) and put in its place individually the genes for the Green Fluorescent Protein (GFP), Venus (a yellow-fluorescent protein) or mCherry (a red-fluorescent protein) in the template plasmid pCN52. The three plasmids were named pCN52RI, pCN52RI-Venus and pCN52RI-mCherry, respectively. The genes for the fluorescent proteins were transcribed under the promoter of the blaZ gene and were regulated by the proteins BlaR and BlaI, as is the case for the wild-type bla operon.
We transformed separately S. aureus NRS144—a laboratory strain that accepts a foreign gene and harbors neither the bla nor the mec operons—with each of these plasmids. […] When induced, the fluorescent protein is produced and is detected (akin to expression of the resistance genes blaZ or mecA in typical MSSA and MRSA). […] The transformed strains were grown in tryptic soy broth medium for overnight culture and strain maintenance and incubated in cation-adjusted Mueller-Hinton broth medium for inhibitor screening in a 96-well microplate format. The culture without CBAP addition was the negative control. In order to select a desirable reporter construct, we compared the intensity of the fluorescence produced from each construct at the wavelengths given in FIG. 2a using the Cytation-5 multi-mode microplate reader. Among the three constructs, pCN52RI-Venus produced the best fluorescence intensity and pCN52RI-mCherry was the second best (FIG. 4).
(§1) The collection of the 100 compounds from the in-silico search was screened against S. aureus NRS144pCN52RI-Venus. The screening strategy was as follows. Bacteria grown to OD600 of 0.25 were exposed concurrently to CBAP (10 mg·L^−1) and the test compound (100 mg·L^−1). Fluorescence was recorded after two hours of incubation. OD600 values were also recorded to identify compounds with inherent antibacterial activity. Compound 1 (Chart 1) emerged—82% diminished fluorescence as an indication of the extent of BlaR inhibition—as a suitable template for structure elaboration. This effort led to the synthesis of several dozen benzimidazole and imidazole compounds. The progression of the iterative design is depicted in Chart 1 for four compounds, culminating in 4. […] The X-ray structures for the complexes of compounds 2 (non-covalent) and 4 (covalent) with the BlaR sensor domain are shown respectively in FIG. 2b (2.0 Å resolution) and FIG. 2c (1.97 Å resolution). Compound 4 makes a covalent bond with the catalytic Ser389 and creates a network of hydrogen bonds with the BlaR active site (FIG. 2c).
(§2) Fluorescent assay for screening of BlaR potential inhibitors. A 3-mL portion of lysogeny broth (LB) medium was inoculated with NRS144pCN52RI Venus from frozen stocks and grown overnight at 37° C. The overnight culture was then diluted 1:150 fold with fresh LB containing […] of erythromycin and incubated at 37° C. to an OD600 of 0.3, at which point fluorescence was induced by the addition of CBAP to a final concentration of 10 μg·mL^−1. The culture was aliquoted (99 L) into 96-well plate and 1 L of inhibitor solution (1 mg·mL^−1 in DMSO) was added to each well. Negative control (DMSO without CBAP) and positive control (CBAP without inhibitor) were included. The plate was incubated at 30° C. for 2 h with intermittent shaking. Fluorescence and OD600 measurements were taken by a Cytation-5 multimode microplate reader. Percent inhibition of BlaR and bacterial growth were calculated using absorbance unit (AU) and OD600 values of each sample entered into this formula: […]

[1] = tested on: S. aureus NRS144pCN52RI-Venus; experiment: Bacterial growth inhibition (OD600) in the fluorescent screening assay; assay type: cell-based, Staphylococcus aureus; conditions: compound at 100 mg/L^−1; OD600 after 2 h
Method: as §1, §2

Chain of BlaR (P18357 whole entry): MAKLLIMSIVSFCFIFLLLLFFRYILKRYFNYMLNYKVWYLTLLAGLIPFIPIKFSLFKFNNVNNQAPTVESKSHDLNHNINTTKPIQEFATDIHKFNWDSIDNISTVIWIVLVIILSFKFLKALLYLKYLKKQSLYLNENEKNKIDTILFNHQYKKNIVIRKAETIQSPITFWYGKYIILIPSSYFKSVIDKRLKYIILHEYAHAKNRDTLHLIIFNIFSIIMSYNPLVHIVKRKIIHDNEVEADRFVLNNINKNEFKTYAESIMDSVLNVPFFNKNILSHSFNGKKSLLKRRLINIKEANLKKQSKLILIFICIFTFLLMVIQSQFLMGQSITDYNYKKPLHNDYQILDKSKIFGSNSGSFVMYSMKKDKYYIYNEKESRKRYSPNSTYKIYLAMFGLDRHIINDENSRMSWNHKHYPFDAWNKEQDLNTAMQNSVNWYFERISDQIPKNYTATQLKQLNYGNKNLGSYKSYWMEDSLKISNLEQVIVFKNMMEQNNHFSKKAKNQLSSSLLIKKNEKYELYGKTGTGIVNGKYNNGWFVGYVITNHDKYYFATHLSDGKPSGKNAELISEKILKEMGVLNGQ

| Structure (SMILES) | % Inhibition of BlaR (BlaR) [%] | % Inhibition of bacterial growth [1] |
| --- | --- | --- |
| N#Cc1cn(Cc2ccc(C(F)(F)F)cc2C(F)(F)F)cn1 [Compound 55] | 0 | 0% |
| OC[C@@H](O)[C@@H](O)c1cn(Cc2ccccc2)c(=S)[nH]1 | 11 | 0% |
| CC(C)(C)OC(=O)NCc1cn(Cc2ccc(C(F)(F)F)cc2C(F)(F)F)c(=S)[nH]1 [Compound 47] |  | 0% |
| OCc1nn(Cc2ccc(C(F)(F)F)cc2C(F)(F)F)c(=S)[nH]1 [Compound 78] | 70 | 56% |
| NCc1cn(Cc2ccc(C(F)(F)F)cc2C(F)(F)F)c(S(=O)(=O)O)n1 [Compound 63] | 50 | 18% |
| COC(=O)c1ccc2nc(SCB(O)O)n(Cc3ccc(C(F)(F)F)cc3C(F)(F)F)c2c1 [Compound 33] | 95 | 13% |
| OCc1cn(Cc2ccc(C(F)(F)F)cc2C(F)(F)F)c(=S)[nH]1 [Compound 2, 4-(Hydroxymethyl)-1-[[2,4-bis(trifluoromethyl)phenyl]methyl]-2H-imidazole-2-thione] | 92 | 0% |
| O=C(/C=C/c1ccc(F)cc1)NCc1ccc2nc(S(=O)(=O)O)n(Cc3ccc(C(F)(F)F)cc3C(F)(F)F)c2c1 [Compound 26] | 99 | 100% |
| O=C(O)c1cn(Cc2ccc(C(F)(F)F)cc2C(F)(F)F)c(S(=O)(=O)O)n1 [Compound 72] | 11 | 0% |
| OC[C@@H](O)[C@H](O)[C@H](O)c1cn(Cc2ccccc2)c(=S)[nH]1 | 13 | 0% |
| CC(C)(C)OC(=O)NCc1cn(Cc2ccc(C(F)(F)F)cc2C(F)(F)F)c(S(=O)(=O)O)n1 [Compound 64] | 75 | 40% |
| OB(O)Cc1nc2ccccc2n1Cc1ccc(C(F)(F)F)cc1C(F)(F)F [Compound 42] | 99 | 82% |
| FC(F)(F)c1ccc(Cn2c(=S)[nH]c3ccccc32)c(C(F)(F)F)c1 [Compound 8, 1-[[2,4-Bis(trifluoromethyl)phenyl]methyl]benzimidazole-2-thione] | 65 | 10% |
| O=S(=O)(O)c1nc(CO)cn1Cc1ccc(C(F)(F)F)cc1C(F)(F)F [Compound 60] | 0 | 0% |
| OB(O)CSc1nc2ccccc2n1Cc1ccc(C(F)(F)F)cc1C(F)(F)F [Compound 3] | 98 | 20% |
| OCc1cn(Cc2ccc(C(F)(F)F)cc2C(F)(F)F)c(Cl)n1 [Compound 58] | 43 | 0% |
| O=S(=O)(O)c1nc2ccc(CO)cc2n1Cc1ccc(C(F)(F)F)cc1C(F)(F)F [Compound 18] | 97 | 0% |
| COC(=O)c1ccc2nc(S)n(Cc3ccc(C(F)(F)F)cc3C(F)(F)F)c2c1 [Compound 15] | 10 | 0% |
| N#Cc1ccc2nc(N)n(Cc3ccc(C(F)(F)F)cc3C(F)(F)F)c2c1 [Compound 19] | 55 | 0% |
| O=C(/C=C/c1ccc(F)cc1)NCc1ccc2nc(S(=O)(=O)O)n(Cc3ccc(C(F)(F)F)cc3C(F)(F)F)c2c1 [Compound 24] |  | 24, R^4 = F, R^5 = H, X = SO3H, 100; 100% |
| O=C(CCc1ccc(F)cc1)NCc1ccc2nc(S(=O)(=O)O)n(Cc3ccc(C(F)(F)F)cc3C(F)(F)F)c2c1 [Compound 30] | 86 | 0% |

| Structure (SMILES) | % Inhibition of BlaR (BlaR) [%] | % Inhibition of bacterial growth [1] |
| --- | --- | --- |
| Nc1nc2ccc(CO)cc2n1Cc1ccc(C(F)(F)F)cc1C(F)(F)F [Compound 21] | 89 | 0% |
| COC(=O)c1ccc2nc(S(=O)(=O)O)n(Cc3ccc(C(F)(F)F)cc3C(F)(F)F)c2c1 [Compound 16] | 20 | 0% |
| COc1ccc(CSc2nc(CNC(=O)OCc3ccccc3)cn2Cc2ccc(C(F)(F)F)cc2C(F)(F)F)cc1 [Compound 65] | 19 | 0% |
| O=S(=O)(O)c1nc2ccccc2n1Cc1ccc(C(F)(F)F)cc1C(F)(F)F [Compound 1, 1-[[2,4-Bis(trifluoromethyl)phenyl]methyl]benzimidazole-2-sulfonic acid] | 82 | 0% |
| NCc1cn(Cc2ccc(C(F)(F)F)cc2C(F)(F)F)c(=S)[nH]1 [Compound 48] | 50 | 90% |
| COC(=O)c1ccc2nc(SCCCC#N)n(Cc3ccc(C(F)(F)F)cc3C(F)(F)F)c2c1 [Compound 39] | 92 | 25% |
| O=S(=O)(O)c1nc2ccccc2n1Cc1ccccc1C(F)(F)F [Compound 13] | 69 | 0% |
| O=C(/C=C/c1ccc(C(F)(F)F)cc1F)NCc1ccc2nc(S(=O)(=O)O)n(Cc3ccc(C(F)(F)F)cc3C(F)(F)F)c2c1 [Compound 28] | 92 | 100% |
| NSc1nc([C@H](O)[C@H](O)CO)cn1Cc1ccccc1 [Compound 52] | 33 | 0% |
| OCc1nc2ccccc2n1Cc1ccc(C(F)(F)F)cc1C(F)(F)F [Compound 40] | 67 | 25% |
| COC(=O)c1ccc2nc(SC[B-]34OC(=O)C[N+]3(C)CC(=O)O4)n(Cc3ccc(C(F)(F)F)cc3C(F)(F)F)c2c1 (centres unmarked) [Compound 35] | 98 | 33% |
| COC(=O)c1ccc2nc(SCCC#N)n(Cc3ccc(C(F)(F)F)cc3C(F)(F)F)c2c1 [Compound 38] | 89 | 16% |
| O=C(/C=C/c1ccc(C(F)(F)F)cc1F)NCc1ccc2nc(S)n(Cc3ccc(C(F)(F)F)cc3C(F)(F)F)c2c1 [Compound 27] | 79 | 55% |
| C[N+]12CC(=O)O[B-]1(CSc1nc3ccc(C#N)cc3n1Cc1ccc(C(F)(F)F)cc1C(F)(F)F)OC(=O)C2 (centres unmarked) [Compound 32] | 93 | 20% |
| OCCc1nc2ccccc2n1Cc1ccc(C(F)(F)F)cc1C(F)(F)F [Compound 44] |  | 40% |
| NS(=O)(=O)c1nc([C@H](O)[C@H](O)CO)cn1Cc1ccccc1 [Compound 53] |  | 49% |
| O=S(=O)(F)c1nc(CO)cn1Cc1ccc(C(F)(F)F)cc1C(F)(F)F [Compound 59] |  | 83% |
| N#Cc1ccc2c(c1)[nH]c(=S)n2Cc1ccc(C(F)(F)F)cc1C(F)(F)F [Compound 9, 1-[2,4-bis(trifluoromethyl)benzyl]-5-nitrile-benzimidazole-2-thione] |  | 97% |
| C[N+]12CC(=O)O[B-]1(CSc1nc3ccccc3n1Cc1ccc(C(F)(F)F)cc1C(F)(F)F)OC(=O)C2 (centres unmarked) [Compound 31, (T-4)-[N-[(Carboxy-κO)methyl]-N-methylglycinato(2-)-κN,κO][[N^1-[[2,4-bis(trifluoromethyl)phenyl]methyl]-1H-benzimidazole-1-yl]thiomethyl]boron] |  | 13% |
| COC(=O)c1ccc2nc(N)n(Cc3ccc(C(F)(F)F)cc3C(F)(F)F)c2c1 [Compound 20] |  | 0% |
